From article PMC6273963, “Design, Synthesis, and Biological Evaluation of Some Novel Pyrrolizine Derivatives as COX Inhibitors with Anti-Inflammatory/Analgesic Activities and Low Ulcerogenic Liability” (Molecules, 2016)

How the values were obtained:
[1] = tested on: stomach mucosa, submucosa and mucosal glands; assay: Histopathological study of rat stomach; format: in vivo; details: rats of the ulcerogenicity test, haematoxylin and eosin stain
Source text: The stomachs of the rats used in ulcerogenicity test were subjected to a histopathological study to visualize the deep effects of ibuprofen and tested compounds on the stomach mucosa, submucosa and mucosal glands. The specimens were stained with haematoxylin and eosin stain [33].
The study investigated the deep effect of the tested compounds on the mucosa, submucosa and mucosal gland. The stomachs which were opened longitudinally along the greater curvature were used and the specimens were taken from the stomachs of all cases. These specimens were fixed in 10% formalin solution for 72 h. The samples were processed and embedded in paraffin wax. Microtomy was done and 5 microns tissue sections were obtained and mounted on clean glass slides.

rat stomach mucosa = assay: Acute ulcerogenicity study; format: in vivo; details: oral, 0.48 mmol/kg
Procedure: GIT toxicity is the main serious side effect of the NSAIDs. In this work, the ulcerogenicity of the novel compounds 12–19 was evaluated according to the previous reported methodology. The tested compounds 12–19 and ibuprofen were given orally in a dose of 0.48 mmol/kg.
(§1) Adult albino rats of both sex weighing 100–140 g were used in evaluation of the anti-inflammatory, analgesic, ulcerogenic activity in addition to the histopathological study of the new pyrrolizines 12–19. Animal ethical use clearance was obtained from the Ethical Committee at the College of Pharmacy, Umm Al-Qura University. Normalization of the animals with laboratory conditions were achieved by keeping them in laboratory one week before starting the experiments. Standard rat pellet diet was used for feeding animals and water ad libitum.
GIT toxicity was evaluated according to the previous report. Adult albino rats of both sexes were divided into groups of six animals each. The test compounds were dissolved first in 0.5 mL DMSO, then CMC (1%) was added dropwise with trituration. Rats were fasted 20 h before drug administration. The eight tested compounds and ibuprofen were given orally in a dose of 0.24 and 0.48 mmol/kg/day suspended in 1% CMC, while the control group received vehicle (1% CMC containing few drops of DMSO). Rats were then fasted for 2 h, allowed to feed for 2 h then fasted again for another 20 h. Other doses were given in the second and third days. In the fourth day, Pentobarbital (60 mg/kg IP) was used to induce deep anesthesia then rats were sacrificed. The stomachs were removed, opened along with the greater curvature and rinsed with 0.9% saline. The number of mucosal damages (red spots) were counted using magnifying lens and their severity (ulcerogenic severity) was graded in a scale from 0 to 3 as follows: (0) normal (no injury), (0.5) red coloration, (1) spot ulcer, (1.5) hemorrhagic streaks, (2) ulcer > 3 mm, (3) ulcer > 5 mm. The ulcer index was calculated using the following equation ulcer index (UI) = UN + US + UP/10, where UN is the average number pf ulcers per animal, US is the average of severity score, UP is the percent of animal with ulcer.

thermal pain (hot plate) = assay: Hot-plate test (analgesic activity); format: in vivo, rat; details: IP, 0.24 and 0.48 mmol/kg, 2 h after injection, compared with ibuprofen
Procedure: A hot-plate was used to induce thermal pain and the cutoff time was fixed to 15 s [30]. […] The analgesic activity of the novel pyrrolizines were carried out using the thermal model (hot-plate test) according to a previous report [30]. An electronically controlled hot-plate (Harvard Apparatus Ltd., Kent, UK) was used and the cut-off time was 15 s and the temperature was adjusted to 52 ± 0.1 °C. Animals were then divided into groups of six animal each. Rats were assigned numbers of 1–6 in each group. The reference drug was given intraperitoneally at a dose of 50 mg/kg (0.24 mmol/kg) and 100 mg/kg (0.48 mmol/kg). […] The response latencies (time elapsed until licking paw or jumping) were measured and expressed as mean ± SEM. The percent changes (analgesic effects) of the tested compounds were calculated as percent change in latencies divided by baseline time (100 × (T1 − T0)/T0) and results were expressed as % change ± SEM, Figure 6.

[2] = tested on: carrageenan-induced rat paw edema; assay: Carrageenan-induced rat paw edema model (anti-inflammatory activity); format: in vivo; design: key to Potency (anti-inflammatory activity of tested compound/ibuprofen): ratio of % inhibition of edema (compound / ibuprofen); ibuprofen = 1.00; details: for % Inhibition in Edema Thickness 1 h: 1 h after induction of inflammation; for % Inhibition in Edema Thickness 1 h / % Inhibition in Edema Thickness 2 h / % Inhibition in Edema Thickness 3 h: IP, dose molecularly equivalent to ibuprofen, n = 6; for % Inhibition in Edema Thickness 2 h: 2 h after induction of inflammation; for % Inhibition in Edema Thickness 3 h: 3 h after induction of inflammation; for Potency (anti-inflammatory activity of tested compound/ibuprofen): after 3 h of induction of inflammation, relative to ibuprofen; for anti-inflammatory activity (in words): compared with ibuprofen and parent compound 12
Source text: The carrageenan-induced rat paw edema model was utilized to investigate the anti-inflammatory activity of compounds 12–19 relative to ibuprofen as a reference drug.
as §1
The anti-inflammatory activity of the novel compounds 12–19 was evaluated in comparison with ibuprofen as a standard, using a rat paw edema model as described by Winter et al.. Adult albino rats of both sexes (100–140 gm) were used. Rats were uniformly hydrated by giving 3 mL water for each rat through gastric inoculation to reduce variability to edema response. Animals were then divided into groups of six animal each. The control group was given saline solution containing few drops of sodium carboxymethyl cellulose (CMC) 1% and DMSO. Ibuprofen (50 and 100 mg/kg) was given as standard drug. The new compounds 12–19 in a dose molecularly equivalent to ibuprofen were dissolved in 0.5 mL DMSO and CMC 1% was added dropwise with continuous triturating to complete the specified volume. The tested compounds were administered intraperitoneally (IP). The induction of inflammation was achieved by subcutaneous (SC) injection of carrageenan-sodium gel, into the sub-plantar region of the right hind paw. The dorsoventral diameter (thickness) of the right and left hind paw of each rat was measured using digital calipers with accuracy of 0.01 mm (Cole-Parmer, Vernon Hills, IL, USA). The thickness of edema was measured 1, 2 and 3 h after induction of inflammation. The left hind paw diameter served as a control for the degree of inflammation in the right hind paw. The changes in the edema thickness were expressed as mean ± SEM, Figure 4. The anti-inflammatory activity was calculated as % inhibition of inflammation = (1 − Lt/Lc) × 100. Where Lt is the mean increase in paw thickness in rats treated with the tested compounds and Lc is the mean increase in paw thickness in control group. Data were collected, and statistically analyzed by One way ANOVA followed by student-Newman-Keuls multiple comparison test, Table 2.

mPGES-1 = tested on: mPGES-1; design: method as in PMID 19719242; details: cell free; cited from earlier work
5-LOX = tested on: 5-LOX; design: method as in PMID 8021931, PMID 9396390, PMID 12660020, PMID 19719242; details: literature values, Figures 1 and 2; cited from earlier work
rat paw edema = tested on: rat paw edema; design: method as in PMID 19913956; details: in comparison with ketorolac; cited from earlier work
COX-1 (ovine) = target: T1, COX-1 (ovine) (Ovis aries, UniProt P05979); assay: COX colorimetric inhibitor screening assay, COX-1
T1 sequence (P05979 25-600): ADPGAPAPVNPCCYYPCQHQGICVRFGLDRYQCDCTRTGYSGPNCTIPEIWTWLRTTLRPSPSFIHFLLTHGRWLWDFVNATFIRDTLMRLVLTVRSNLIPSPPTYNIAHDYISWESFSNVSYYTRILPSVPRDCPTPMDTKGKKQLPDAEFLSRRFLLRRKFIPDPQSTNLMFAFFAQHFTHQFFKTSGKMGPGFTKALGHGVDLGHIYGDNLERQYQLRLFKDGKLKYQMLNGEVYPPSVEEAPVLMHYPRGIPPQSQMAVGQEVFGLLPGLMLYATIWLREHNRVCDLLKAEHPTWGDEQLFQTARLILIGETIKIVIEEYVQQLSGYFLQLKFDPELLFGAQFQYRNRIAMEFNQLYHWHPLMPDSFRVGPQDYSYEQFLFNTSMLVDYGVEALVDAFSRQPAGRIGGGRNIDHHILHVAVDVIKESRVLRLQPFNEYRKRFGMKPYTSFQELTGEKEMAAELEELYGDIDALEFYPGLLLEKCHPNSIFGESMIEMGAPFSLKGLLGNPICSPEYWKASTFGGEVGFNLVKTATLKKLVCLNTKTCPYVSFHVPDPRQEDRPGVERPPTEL

[3] = target: T2, COX-2 (human recombinant) (Homo sapiens, UniProt P35354); assay: COX colorimetric inhibitor screening assay, COX-2
T2 sequence (P35354 18-604): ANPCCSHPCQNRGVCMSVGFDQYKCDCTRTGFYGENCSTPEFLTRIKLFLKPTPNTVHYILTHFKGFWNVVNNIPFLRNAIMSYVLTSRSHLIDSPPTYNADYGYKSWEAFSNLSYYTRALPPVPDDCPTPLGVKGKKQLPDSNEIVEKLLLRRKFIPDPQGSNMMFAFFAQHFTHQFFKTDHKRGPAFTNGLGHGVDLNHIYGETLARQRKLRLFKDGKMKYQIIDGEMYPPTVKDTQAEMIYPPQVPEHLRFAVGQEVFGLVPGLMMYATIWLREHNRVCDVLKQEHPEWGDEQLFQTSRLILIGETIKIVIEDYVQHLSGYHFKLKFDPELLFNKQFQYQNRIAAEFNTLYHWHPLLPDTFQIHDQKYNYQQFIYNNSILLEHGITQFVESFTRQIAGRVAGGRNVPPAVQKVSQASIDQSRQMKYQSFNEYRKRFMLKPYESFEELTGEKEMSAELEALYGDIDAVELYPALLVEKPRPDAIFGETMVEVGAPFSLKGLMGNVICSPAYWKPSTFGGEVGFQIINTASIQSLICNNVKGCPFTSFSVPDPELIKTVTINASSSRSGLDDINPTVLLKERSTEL

Row | SMILES | histopathological findings in stomach transverse sections [1] | melting point [°C] | Ulcerogenicity % Protection (% inhibition of ulcer relative to ibuprofen) (rat stomach mucosa) [%] | analgesic activity (in words) (thermal pain (hot plate)) | % Inhibition in Edema Thickness 1 h [2] [%] | % Inhibition in Edema Thickness 2 h [2] [%] | % Inhibition in Edema Thickness 3 h [2] [%] | Potency (anti-inflammatory activity of tested compound/ibuprofen) [2] | anti-inflammatory activity (in words) [2] | IC50 (mPGES-1) [µM] | IC50 (5-LOX) [nM] | reduction in rat paw edema (rat paw edema) | IC50 (COX-1 (ovine)) [µM] | IC50 [3] [nM] | SI (COX-2 selectivity index = IC50 of COX-1/IC50 of COX-2) ([3]; in vitro) | Ulcerogenicity UI (ulcer index) (rat stomach mucosa; three days, n = 6)
1 | CC(C)Cc1ccc(C(C)C(=O)Nc2c(C#N)c3n(c2C(=O)Nc2ccc(Br)cc2)CCC3)cc1 (racemic) [Compound 19, (R,S)-N-(4-Bromophenyl)-7-cycno-6-(2-(4-isobutylphenyl)propanamido)-2,3-dihydro-1H-pyrrolizine-5-carboxamide] | normal mucosal glands with no histopathological effects | 217 to 219 | 100 | lower than that of ibuprofen | 13.82 | 22.44 | 38.79 | 0.95 | weak activity after the first hour | – | – | – | – | – | – | –
2 | Cc1ccc(S(=O)(=O)NC(=O)Cc2c(-c3ccc(Cl)cc3)c(-c3ccccc3)c3n2CC(C)(C)C3)cc1 [Compound 6] | – | – | – | – | – | – | – | – | – | 4.8 | 260 | – | – | – | – | –
3 | N#Cc1c(N)c(C(=O)Nc2ccc(C(=O)O)cc2)n2c1CCC2 [Compound 7] | – | – | – | – | – | – | – | – | – | – | – | approximately 50% | – | – | – | –
4 | N#Cc1c(NC(=O)C(=O)Nc2c(C#N)c3n(c2C(=O)Nc2ccc(Br)cc2)CCC3)c(C(=O)Nc2ccc(Br)cc2)n2c1CCC2 [Compound 18, N^1,N^2-Bis(5-((4-Bromophenyl)carbamoyl)-7-cycno-2,3-dihydro-1H-pyrrolizin-6-yl)oxalamide] | little histopathological effects such as congested blood vessels and variable degrees of leukocytes infiltration | 318 to 321 | 68.18 | lower than that of ibuprofen | 6.91 | 17.72 | 22.42 | 0.55 | lower activity than both ibuprofen and the parent compound 12 | – | – | – | 5.1 | 850 | 6.03 | 4.41
